Assay results taken from patent US7416885B2, “Proliferated cell lines and uses thereof” (University of South Florida, priority 2002, dated 2008).

How the values were obtained:
UCHCC1 cells = type: cell-based, rat; conditions: read-out: half-maximal inhibitory concentration
[1] = molecular target: single class of receptors for [3H]en-TTX; type: binding, rat
RCSN-3 cells [2] = system: RCSN-3 cells
RCSN-3 cells [3] = system: RCSN-3 cells; remark: listed apart in the source
[4] = molecular target: microsomal fraction from RCVC cells (Rattus norvegicus, UniProt P22002); assay: 3H-nitrendipine binding to microsomal fraction of RCVC cells; conditions: read-out: equilibrium dissociation constant
RCSN-3 cells [5] = assay: melanin fluorescence in RCSN-3 cells preincubated with L-Dopa; type: cell-based, rat; conditions: for melanin, mean: L-DOPA, n 3 (ANOVA summary); for melanin, Average: L-DOPA (+), 100 microM, 24 hrs
Protocol: RCSN-3 cells were preincubated for 24 hrs in the presence of 100 microM L-Dopa. Cells were lysed with a hypotonic buffer. […] Oxidation of melanin in vitro degraded the melanin polymer, resulting in a fluorescent solution. Fluorescence spectroscopy gave an excitation maximum at approximately 470 nm and an emission maximum at approximately 540 nm for both natural and synthetic melanin. Increasing the time of exposure to light or hydrogen peroxide increased melanin fluorescence (Kayatz, P et al., Invest Ophthalmol Vis Sci, January 2001,42(1):241–6).

[6] = molecular target: T1, receptors for dihydropyridines (Homo sapiens, UniProt Q13698); assay: dihydropyridine ([3H]PN200-110) binding to RCMH cells
T1 construct: endogenous in cells; host or cells: RCMH (immortalized human skeletal muscle cell line)

RCVC cells = assay: 45Ca2+ influx in RCVC cells; type: cell-based, rat; conditions: normally polarized cells
[7] = molecular target: receptors for α-bungarotoxin (Homo sapiens, UniProt P02708+P07510+Q07001); type: binding
RCSN cells = assay: intracellular Ca2+ imaging in Fluo-3 loaded RCSN cells; type: cell-based, rat; conditions: differentiated cells, 200 μM glutamate applied externally
[8] = system: MAO B activity in RCSN-3 cell lysates; assay: MPP+ production by RCSN-3 cell lysates incubated with MPTP (HPLC); type: biochemical, rat
Protocol: To verify if RCSN-3 cells can produce MPP^+ from MPTP, lisates of RCSN-3 cells (differentiated and non-differentiated) were incubated with MPTP. Differentiation was induced by culturing in F10 media+2% adult bovine serum for one week. Non-differentiated conditions were attained with F10 media+10% adult bovine serum and 2.5% fetal bovine serum. Lisate buffer was PBS with 50 μM PMSF and a protease inhibiting cocktail (leupeptin, pepstatine, chemostatin). Samples were incubated with MPTP and MPP^+ for 15 min. at 37° C. HPLC studies were carried out in a SHIMADZU HPLC with […], reading at 245 nm. Results are shown in FIGS. 16A–C, FIGS. 17A–D, and FIGS. 18A–C.

Chain of receptors for α-bungarotoxin (P02708 21-457 limits assumed): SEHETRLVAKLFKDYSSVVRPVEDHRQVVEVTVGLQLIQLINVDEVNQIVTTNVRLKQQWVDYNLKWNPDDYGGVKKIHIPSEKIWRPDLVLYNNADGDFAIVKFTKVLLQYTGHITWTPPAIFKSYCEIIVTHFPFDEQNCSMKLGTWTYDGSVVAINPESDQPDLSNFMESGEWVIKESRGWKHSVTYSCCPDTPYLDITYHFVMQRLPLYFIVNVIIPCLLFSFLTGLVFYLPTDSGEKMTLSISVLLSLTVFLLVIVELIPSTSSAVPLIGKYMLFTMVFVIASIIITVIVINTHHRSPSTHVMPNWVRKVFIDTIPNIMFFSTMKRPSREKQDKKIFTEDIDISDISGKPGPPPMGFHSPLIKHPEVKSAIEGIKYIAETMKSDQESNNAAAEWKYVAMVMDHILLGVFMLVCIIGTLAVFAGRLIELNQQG
Chain of receptors for α-bungarotoxin (P07510 23-517 limits assumed): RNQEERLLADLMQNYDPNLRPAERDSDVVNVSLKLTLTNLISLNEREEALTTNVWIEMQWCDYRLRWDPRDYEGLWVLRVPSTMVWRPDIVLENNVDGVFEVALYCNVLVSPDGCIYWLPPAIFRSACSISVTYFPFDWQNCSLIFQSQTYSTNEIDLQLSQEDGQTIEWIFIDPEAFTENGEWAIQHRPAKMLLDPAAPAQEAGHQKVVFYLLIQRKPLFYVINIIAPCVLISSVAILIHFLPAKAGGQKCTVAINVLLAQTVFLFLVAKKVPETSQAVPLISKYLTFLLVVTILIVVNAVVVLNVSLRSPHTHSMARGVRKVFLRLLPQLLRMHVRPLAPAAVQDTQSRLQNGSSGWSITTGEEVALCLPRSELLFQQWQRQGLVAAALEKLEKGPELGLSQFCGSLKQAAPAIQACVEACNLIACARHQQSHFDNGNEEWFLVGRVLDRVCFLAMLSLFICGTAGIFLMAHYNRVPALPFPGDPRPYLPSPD
Chain of receptors for α-bungarotoxin (Q07001 22-517 limits assumed): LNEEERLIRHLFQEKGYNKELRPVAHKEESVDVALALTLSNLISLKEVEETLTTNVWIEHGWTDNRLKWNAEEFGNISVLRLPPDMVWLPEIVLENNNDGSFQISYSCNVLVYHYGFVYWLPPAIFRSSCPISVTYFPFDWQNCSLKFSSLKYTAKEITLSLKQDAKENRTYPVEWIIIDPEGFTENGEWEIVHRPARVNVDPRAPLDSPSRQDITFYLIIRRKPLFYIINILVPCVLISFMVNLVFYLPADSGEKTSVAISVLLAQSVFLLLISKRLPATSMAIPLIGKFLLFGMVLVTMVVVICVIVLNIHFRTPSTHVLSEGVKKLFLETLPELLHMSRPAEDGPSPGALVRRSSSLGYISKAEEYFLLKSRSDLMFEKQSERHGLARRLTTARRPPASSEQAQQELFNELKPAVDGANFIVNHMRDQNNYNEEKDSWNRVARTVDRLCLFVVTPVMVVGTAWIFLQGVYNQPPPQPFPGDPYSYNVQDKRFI
T1 sequence (Q13698 whole entry): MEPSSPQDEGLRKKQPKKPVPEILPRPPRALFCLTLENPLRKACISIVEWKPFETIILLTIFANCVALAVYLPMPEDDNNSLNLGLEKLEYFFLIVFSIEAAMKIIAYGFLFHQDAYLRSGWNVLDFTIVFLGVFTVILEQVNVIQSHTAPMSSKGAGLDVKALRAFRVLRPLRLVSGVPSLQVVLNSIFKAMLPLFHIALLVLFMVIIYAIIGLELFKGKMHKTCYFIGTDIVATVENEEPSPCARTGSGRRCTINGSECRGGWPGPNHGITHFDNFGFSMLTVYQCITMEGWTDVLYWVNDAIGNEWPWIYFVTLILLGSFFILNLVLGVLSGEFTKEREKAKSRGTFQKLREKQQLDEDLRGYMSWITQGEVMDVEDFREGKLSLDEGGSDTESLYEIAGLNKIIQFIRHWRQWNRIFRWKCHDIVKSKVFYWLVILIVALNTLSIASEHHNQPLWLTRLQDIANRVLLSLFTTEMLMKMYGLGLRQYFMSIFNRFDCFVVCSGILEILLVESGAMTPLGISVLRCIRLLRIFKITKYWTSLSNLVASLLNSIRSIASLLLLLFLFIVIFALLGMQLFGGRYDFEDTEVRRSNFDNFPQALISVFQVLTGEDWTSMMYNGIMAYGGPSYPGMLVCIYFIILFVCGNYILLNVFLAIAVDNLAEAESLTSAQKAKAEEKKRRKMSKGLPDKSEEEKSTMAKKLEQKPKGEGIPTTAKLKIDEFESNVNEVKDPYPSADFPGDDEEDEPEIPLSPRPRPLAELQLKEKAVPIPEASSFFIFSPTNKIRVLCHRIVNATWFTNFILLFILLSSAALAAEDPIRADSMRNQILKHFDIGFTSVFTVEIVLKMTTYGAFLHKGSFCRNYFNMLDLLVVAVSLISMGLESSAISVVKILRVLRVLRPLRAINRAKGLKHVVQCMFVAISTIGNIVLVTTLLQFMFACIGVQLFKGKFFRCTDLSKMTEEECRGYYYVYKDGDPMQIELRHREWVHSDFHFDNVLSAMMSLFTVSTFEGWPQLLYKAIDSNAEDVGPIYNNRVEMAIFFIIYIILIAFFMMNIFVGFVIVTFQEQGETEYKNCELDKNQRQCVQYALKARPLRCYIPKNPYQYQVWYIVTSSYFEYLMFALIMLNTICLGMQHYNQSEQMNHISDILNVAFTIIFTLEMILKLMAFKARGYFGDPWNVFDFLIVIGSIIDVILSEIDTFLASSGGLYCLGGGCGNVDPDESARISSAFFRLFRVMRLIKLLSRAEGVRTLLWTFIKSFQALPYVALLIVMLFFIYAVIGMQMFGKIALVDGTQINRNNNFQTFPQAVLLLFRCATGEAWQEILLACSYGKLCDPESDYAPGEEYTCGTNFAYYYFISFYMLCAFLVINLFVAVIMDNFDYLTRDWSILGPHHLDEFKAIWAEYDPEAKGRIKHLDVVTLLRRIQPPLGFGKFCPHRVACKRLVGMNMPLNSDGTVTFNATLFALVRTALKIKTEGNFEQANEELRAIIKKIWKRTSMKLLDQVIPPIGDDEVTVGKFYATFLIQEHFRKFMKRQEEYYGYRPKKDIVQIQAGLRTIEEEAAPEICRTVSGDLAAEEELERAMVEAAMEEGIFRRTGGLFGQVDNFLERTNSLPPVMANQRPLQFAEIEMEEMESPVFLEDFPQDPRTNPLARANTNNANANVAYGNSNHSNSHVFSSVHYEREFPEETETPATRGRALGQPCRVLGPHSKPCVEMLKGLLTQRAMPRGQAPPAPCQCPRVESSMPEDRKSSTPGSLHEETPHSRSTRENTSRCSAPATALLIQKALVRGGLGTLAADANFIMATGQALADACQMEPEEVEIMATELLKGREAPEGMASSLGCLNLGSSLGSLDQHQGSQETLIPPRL

## NC1=N[C@H](O)[C@H]2[C@H]3O[C@]4(O)O[C@@H]([C@@H](O)[C@@]2(N1)[C@@H]4O)[C@]3(O)CO [tetrodotoxin]
UCHCC1 cells
  IC50: 900 pM

## [^3H]ethylenediamine-tetrodotoxin [[^3H]en-TTX]
[1]
  Kd: 1100 pM
  maximal binding (Bmax): 173 fmol/mg protein

## C[n+]1ccc(-c2ccccc2)cc1 [MPP+, 1-methyl-4-phenylpyridinium]
RCSN-3 cells [2]
  DNA fragmentation (TUNEL): fragmentation of DNA
RCSN-3 cells [3]
  mitochondrial membrane potential (JC-1 fluorescence): affects mitochondrial function
  ratio of emission between JC-1 and J monomer, normalized to basal fluorescence: significant differences from controls

## CCOC(=O)C1=C(C)NC(C)=C(C(=O)OC)C1c1cccc([N+](=O)[O-])c1 (centres unmarked) [^3H-nitrendipine, nitrendipine]
[4]
  Kd: 700 pM

## [Mn+2] [manganese]
RCSN-3 cells [3]
  mitochondrial membrane potential (JC-1 fluorescence): decrease in membrane potential
  ratio of emission between JC-1 and J monomer, normalized to basal fluorescence: significant differences from controls

## N[C@@H](Cc1ccc(O)c(O)c1)C(=O)O [L-DOPA, levodopa]
RCSN-3 cells [5]; Glass
  melanin, mean: 0.03305
RCSN-3 cells [5]; Plastic
  melanin, mean: 0.04045
RCSN-3 cells [5]; glass dishes
  melanin, Average: 0.033
RCSN-3 cells [5]; plastic dishes
  melanin, Average: 0.040

## COC(=O)C1=C(C)NC(C)=C(C(=O)OC(C)C)C1c1cccc2nonc12 (centres unmarked) [[^3H]PN200-110]
[6]
  Bmax: 0.3 pmol/mg protein
  Kd: 500 pM

## NCCc1ccc(O)c(O)c1 [dopamine]
RCSN-3 cells [3]
  mitochondrial membrane potential (JC-1 fluorescence): decrease in membrane potential
  ratio of emission between JC-1 and J monomer, normalized to basal fluorescence: significant differences from controls

## COC(=O)C1=C(C)NC(C)=C([N+](=O)[O-])C1c1ccccc1C(F)(F)F (centres unmarked) [BAYK-8644]
RCVC cells
  45Ca2+ influx induced by calcium channel agonist: equivalent influx

## CCOC(=O)C1=C(C)NC2=C(C(=O)OC2)C1c1ccccc1OC(F)F (centres unmarked) [CGP-28392]
RCVC cells
  45Ca2+ influx induced by calcium channel agonist: equivalent influx

## α-bungarotoxin
[7]
  Bmax: 0.7 pmol/mg protein
  Kd: 1500 pM

## N[C@@H](CCC(=O)O)C(=O)O [glutamate]
RCSN cells
  cells responding with increases in Ca2+: up to 40%

## CN1CC=C(c2ccccc2)CC1 [MPTP, 1-methyl-4-phenyl-1,2,3,6-tetrahydropyridine]
[8]
  production of MPP+ from MPTP: no production of MPP^+
